Converted amounts (≈) assume the structure as drawn.

The nature of data set [1]: in vivo. Particulars: Sprague-Dawley, rat, po, 10 mg/kg.
The nature of data set [2]: in vivo. Particulars: Sprague-Dawley, rat, po, 10 mg/kg. The source holds these as a separate data set.
The nature of data set [3]: in vivo. Particulars: Sprague-Dawley, rat, plasma, po, 10 mg/kg.
The nature of data set [4]: in vivo. Particulars: Sprague-Dawley, rat, po, 10 mg/kg. This is another data set of the same source.
Data set [5] in a line: in vivo. Particulars: Sprague-Dawley, rat, po, 10 mg/kg. The source holds these as a separate data set.
Data set [6] in a line: in vivo. As to conditions: Sprague-Dawley, rat, iv, 1 mg/kg.
The nature of data set [7]: physchem. Particulars: buffer, pH 7.
Data set [8] in a line: in vivo. As to conditions: Sprague-Dawley, rat, iv, 1 mg/kg. This is another data set of the same source.
Data set [9] in a line: physchem. Particulars: buffer, pH 7.4.
A short description of data set [10]: in vivo. As to conditions: Sprague-Dawley, rat, iv, 1 mg/kg. This is another data set of the same source.

As to `C=CC(=O)N1CC[C@@H](N2N=C(Nc3ccc(Oc4ccccc4)cc3)c3c[nH]c4ncnc2c34)C1`, the bioavailability at 24 h in “in vivo [1]” was 3.6%. The Cmax at 24 h in the data set “in vivo [2]” amounted to 52.5 ng/mL. This compound also had a concentration at 1 h in “in vivo [3]” of 125 nM. The AUC at 24 h in “in vivo [4]” was 164 ng·h/mL; in the data set “in vivo [8]”, 454 ng·h/mL. Besides, in “in vivo [5]”, the Tmax at 24 h came out at 1 h. Moreover, in “in vivo [6]”, the clearance at 24 h stood at 36.8 mL/min/kg. This compound yielded a solubility in the data set “physchem [7]” of 174 µM (≈ 81 µg/mL). Moreover, the share remaining at 24 h in the data set “physchem [9]” was found to be 80.2%. The compound also registered a volume of distribution (Vd) at 24 h in the data set “in vivo [10]” of 1.67 L/kg.

The values above are taken from ChEMBL document CHEMBL5352457, “Discovery of orally active 1,4,5,6,8-pentaazaacenaphthylens as novel, selective, and potent covalent BTK inhibitors for the treatment of rheumatoid arthritis” (Eur J Med Chem, 2023).
